# Columns and labels:
# [1] = target: Transmembrane protease serine 2 (Homo sapiens, UniProt O15393); experiment: Inhibition of TMPRSS2 (unknown origin) expressed in Escherichia coli BL21 (DE3) using H-D cyclohexylalanine-Pro-Arg-AM as substrate by Dixon method
# Influenza A virus [2] = experiment: Antiviral activity against human pandemic influenza virus A/Hamburg/5/09 (H1N1) infected in human Calu-3 cells assessed as fold decrease in viral titre at 10 uM incubated for 24 hrs by plaque assay; format: functional
# Influenza A virus [3] = experiment: Antiviral activity against human pandemic influenza virus A/Aichi/2/68 (H3N2) infected in human Calu-3 cells assessed as fold decrease in viral titre at 10 uM incubated for 24 hrs by plaque assay; format: functional
# Influenza A virus [4] = experiment: Antiviral activity against human pandemic influenza virus A/Aichi/2/68 (H3N2) infected in human Calu-3 cells assessed as fold decrease in viral titre at 50 uM incubated for 24 hrs by plaque assay; format: functional
# Influenza A virus [5] = experiment: Antiviral activity against human pandemic influenza virus A/Hamburg/5/09 (H1N1) infected in human Calu-3 cells assessed as fold decrease in viral titre at 50 uM incubated for 24 hrs by plaque assay; format: functional
# [6] = target: T1, Angiotensin-converting enzyme (Homo sapiens, UniProt P12821); experiment: Inhibition of recombinant human ACE assessed as maximum inhibition using Mca-RPGFSAFK (Dnp)-OH as substrate by fluorescence plate reader assay relative to control
# [7] = target: T1, Angiotensin-converting enzyme; experiment: Inhibition of ACE in human MNCs assessed as maximum inhibition using substrate Mca-RPGFSAFK (Dnp)-OH as substrate by fluorescence plate reader assay relative to control; format: cell-based; settings: Mononuclear cell line
# [8] = target: T2, Angiotensin-converting enzyme 2 (Homo sapiens, UniProt Q9BYF1); experiment: Inhibition of recombinant human ACE2 assessed as maximum inhibition using 7- Mca-YVADAPK (Dnp) as substrate by fluorescence plate reader assay relative to control
# Target sequence in this assay (Q9BYF1 18-805 limits assumed): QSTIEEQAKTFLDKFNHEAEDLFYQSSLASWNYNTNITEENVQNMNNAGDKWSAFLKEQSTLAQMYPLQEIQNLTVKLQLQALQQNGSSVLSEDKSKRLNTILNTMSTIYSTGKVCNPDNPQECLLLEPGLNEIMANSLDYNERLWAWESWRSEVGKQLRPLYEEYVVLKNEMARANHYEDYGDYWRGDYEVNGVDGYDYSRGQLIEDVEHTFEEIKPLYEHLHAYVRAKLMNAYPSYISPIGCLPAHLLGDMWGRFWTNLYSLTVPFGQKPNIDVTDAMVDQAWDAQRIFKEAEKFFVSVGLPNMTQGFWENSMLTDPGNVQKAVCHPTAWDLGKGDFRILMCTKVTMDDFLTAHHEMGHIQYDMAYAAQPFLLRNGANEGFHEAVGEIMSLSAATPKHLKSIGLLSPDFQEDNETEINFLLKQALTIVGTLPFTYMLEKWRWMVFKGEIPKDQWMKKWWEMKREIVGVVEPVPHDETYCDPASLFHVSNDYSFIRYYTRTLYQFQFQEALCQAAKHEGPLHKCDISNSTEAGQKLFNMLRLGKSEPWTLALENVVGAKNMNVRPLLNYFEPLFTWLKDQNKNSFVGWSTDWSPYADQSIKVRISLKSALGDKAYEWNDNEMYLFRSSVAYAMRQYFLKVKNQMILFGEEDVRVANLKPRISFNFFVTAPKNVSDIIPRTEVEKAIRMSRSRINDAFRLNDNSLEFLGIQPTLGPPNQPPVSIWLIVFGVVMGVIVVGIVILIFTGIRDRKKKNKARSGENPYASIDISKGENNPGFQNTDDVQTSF
# [9] = target: T1, Angiotensin-converting enzyme; experiment: Inhibition of recombinant human ACE using Mca-RPGFSAFK (Dnp)- OH as substrate by fluorescence plate reader assay
# [10] = target: T2, Angiotensin-converting enzyme 2; experiment: Inhibition of recombinant human ACE2 using 7-Mca-YVADAPK (Dnp) as substrate by fluorescence plate reader assay
# Target sequence in this assay (Q9BYF1 whole entry): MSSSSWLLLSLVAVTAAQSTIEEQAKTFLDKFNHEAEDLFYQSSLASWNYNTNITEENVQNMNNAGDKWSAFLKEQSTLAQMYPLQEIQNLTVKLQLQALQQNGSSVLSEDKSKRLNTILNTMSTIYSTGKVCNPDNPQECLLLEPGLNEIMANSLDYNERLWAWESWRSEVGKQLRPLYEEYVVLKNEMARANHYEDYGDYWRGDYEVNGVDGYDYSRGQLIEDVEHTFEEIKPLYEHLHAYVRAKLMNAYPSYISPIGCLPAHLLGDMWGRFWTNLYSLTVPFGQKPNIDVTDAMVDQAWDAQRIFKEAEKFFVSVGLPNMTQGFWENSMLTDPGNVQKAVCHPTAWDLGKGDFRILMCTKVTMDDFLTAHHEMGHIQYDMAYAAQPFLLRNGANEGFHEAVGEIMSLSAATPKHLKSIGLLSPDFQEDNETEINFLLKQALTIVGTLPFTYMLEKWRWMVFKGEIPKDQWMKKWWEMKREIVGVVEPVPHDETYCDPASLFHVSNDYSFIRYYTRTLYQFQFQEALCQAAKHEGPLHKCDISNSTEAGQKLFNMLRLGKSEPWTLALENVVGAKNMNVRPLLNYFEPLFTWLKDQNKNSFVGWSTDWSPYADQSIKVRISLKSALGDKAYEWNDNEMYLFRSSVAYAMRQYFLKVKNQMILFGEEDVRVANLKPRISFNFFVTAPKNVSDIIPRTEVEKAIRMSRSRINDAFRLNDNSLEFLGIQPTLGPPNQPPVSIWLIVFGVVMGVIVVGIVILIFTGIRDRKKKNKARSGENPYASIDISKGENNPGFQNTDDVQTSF
# [11] = target: T2, Angiotensin-converting enzyme 2; experiment: Inhibition of ACE2 in human MNCs assessed as maximum inhibition using 7- Mca-YVADAPK (Dnp) as substrate by fluorescence plate reader assay relative to control; format: cell-based; settings: Mononuclear cell line
# Target sequence in this assay (Q9BYF1 18-805 limits assumed): as the sequence (Q9BYF1 18-805 limits assumed) above
# Calu-3 = experiment: Cytotoxicity against human Calu-3 cells assessed as decrease in viability at 50 uM incubated for 48 hrs by MTT assay; format: toxicity, cell-based; settings: calu-3, 48 h
# Transmembrane protease serine 2, sequence (O15393 1-255 limits assumed): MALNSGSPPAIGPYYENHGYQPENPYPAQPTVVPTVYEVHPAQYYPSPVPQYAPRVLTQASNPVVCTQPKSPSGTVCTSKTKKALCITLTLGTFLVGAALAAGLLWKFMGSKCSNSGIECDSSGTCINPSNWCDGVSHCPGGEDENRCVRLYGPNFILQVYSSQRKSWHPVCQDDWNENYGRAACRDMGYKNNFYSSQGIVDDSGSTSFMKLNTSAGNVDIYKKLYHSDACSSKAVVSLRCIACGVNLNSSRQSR
# Transmembrane protease serine 2, sequence (O15393 256-492 limits assumed): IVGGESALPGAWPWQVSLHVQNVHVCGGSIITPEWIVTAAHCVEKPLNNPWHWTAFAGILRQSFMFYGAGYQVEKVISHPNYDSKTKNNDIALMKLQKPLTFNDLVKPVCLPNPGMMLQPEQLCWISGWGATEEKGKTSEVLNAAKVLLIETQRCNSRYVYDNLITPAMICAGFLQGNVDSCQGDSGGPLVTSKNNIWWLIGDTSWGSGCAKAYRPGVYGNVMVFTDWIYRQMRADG
# T1 sequence (P12821 whole entry): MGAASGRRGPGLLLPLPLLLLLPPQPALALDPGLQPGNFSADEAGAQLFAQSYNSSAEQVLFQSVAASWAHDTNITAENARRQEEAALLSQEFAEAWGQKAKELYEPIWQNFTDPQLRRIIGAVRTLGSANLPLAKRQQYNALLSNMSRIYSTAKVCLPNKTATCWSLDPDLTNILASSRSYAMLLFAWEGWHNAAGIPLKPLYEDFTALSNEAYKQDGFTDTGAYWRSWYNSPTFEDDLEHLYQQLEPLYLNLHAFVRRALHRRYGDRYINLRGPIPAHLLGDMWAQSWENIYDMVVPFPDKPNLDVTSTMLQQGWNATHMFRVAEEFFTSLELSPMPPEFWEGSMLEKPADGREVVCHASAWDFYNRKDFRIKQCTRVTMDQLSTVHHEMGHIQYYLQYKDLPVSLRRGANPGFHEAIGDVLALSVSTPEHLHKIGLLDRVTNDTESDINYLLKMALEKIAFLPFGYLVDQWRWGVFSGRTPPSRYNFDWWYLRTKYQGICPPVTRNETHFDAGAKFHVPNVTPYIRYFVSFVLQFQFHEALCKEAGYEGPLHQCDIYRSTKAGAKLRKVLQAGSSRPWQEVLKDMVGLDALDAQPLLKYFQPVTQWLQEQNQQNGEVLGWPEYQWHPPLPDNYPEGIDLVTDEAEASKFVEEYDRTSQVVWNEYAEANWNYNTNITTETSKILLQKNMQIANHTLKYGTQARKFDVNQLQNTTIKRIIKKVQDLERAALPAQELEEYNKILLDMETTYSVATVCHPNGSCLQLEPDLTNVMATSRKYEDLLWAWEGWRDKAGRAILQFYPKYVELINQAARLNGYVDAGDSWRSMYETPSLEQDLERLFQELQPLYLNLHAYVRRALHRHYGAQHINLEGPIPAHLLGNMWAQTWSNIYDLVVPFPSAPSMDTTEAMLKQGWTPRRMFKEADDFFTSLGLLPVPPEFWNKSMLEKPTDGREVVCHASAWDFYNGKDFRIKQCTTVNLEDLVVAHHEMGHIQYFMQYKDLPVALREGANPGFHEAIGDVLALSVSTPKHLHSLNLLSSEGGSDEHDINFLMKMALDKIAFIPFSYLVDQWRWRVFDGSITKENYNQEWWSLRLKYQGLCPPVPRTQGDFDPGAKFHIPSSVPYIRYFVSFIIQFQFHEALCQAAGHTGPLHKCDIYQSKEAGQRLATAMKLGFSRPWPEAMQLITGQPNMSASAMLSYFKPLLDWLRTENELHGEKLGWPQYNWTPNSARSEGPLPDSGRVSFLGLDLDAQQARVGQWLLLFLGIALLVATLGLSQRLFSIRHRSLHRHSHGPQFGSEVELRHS
SMILES,Ki [1] [nM],Imax [6] [%],Imax [7] [%],Imax [8] [%],Imax [11] [%],other results
N=C(N)c1cccc(C[C@H](NS(=O)(=O)c2cccc(-c3ccc(Cl)cc3Cl)c2)C(=O)N2CCC(CCN)CC2)c1,0.9,,,,,fold change (FC) (Influenza A virus [2]): 10; fold change (FC) (Influenza A virus [3]): 100; fold change (FC) (Influenza A virus [4]): 100; fold change (FC) (Influenza A virus [5]): 100
CC(C)C[C@@H](N[C@@H](Cc1cncn1Cc1cc(Cl)cc(Cl)c1)C(=O)O)C(=O)O,,49,20,93,35,IC50 [9]: 39800 nM; IC50 [10]: 1.26 nM
N=C(N)c1cccc(C[C@H](NS(=O)(=O)c2cccc(-c3ccc(Cl)cc3Cl)c2)C(=O)N2CCC(NC(=O)NC3CCCCC3)CC2)c1,3,,,,,
CC(C)CC(N[C@@H](Cc1cncn1Cc1cc(Cl)cc(Cl)c1)C(=O)O)C(=O)O (mixture of isomers),,48,22,94,34,IC50 [9]: 39800 nM; IC50 [10]: 3.16 nM
CNC(=O)NCCC1CCN(C(=O)[C@H](Cc2cccc(C(=N)N)c2)NS(=O)(=O)c2cccc(-c3ccc(Cl)cc3Cl)c2)CC1,3,,,,,
CNC(=O)CCCC1CCN(C(=O)[C@H](Cc2cccc(C(=N)N)c2)NS(=O)(=O)c2cccc(-c3ccc(Cl)cc3Cl)c2)CC1,,,,,,Activity (Calu-3): 20%
COc1ccc(-c2cccc(S(=O)(=O)N[C@@H](Cc3cccc(C(=N)N)c3)C(=O)N3CCC(CCN)CC3)c2)c(OC)c1,1,,,,,
CNC(=O)NCCC1CCN(C(=O)[C@H](Cc2cccc(C(=N)N)c2)NS(=O)(=O)c2cccc(-c3ccc(OC)cc3OC)c2)CC1,3,,,,,
COc1ccc(-c2cccc(S(=O)(=O)N[C@@H](Cc3cccc(C(=N)N)c3)C(=O)N3CCC(NC(=O)NC4CCCCC4)CC3)c2)c(OC)c1,3,,,,,Activity (Calu-3): 20%
CC(C)C[C@H](N[C@@H](Cc1cncn1Cc1cc(Cl)cc(Cl)c1)C(=O)O)C(=O)O [ORE-1001],,46,34,80,63,pIC50 [9]: 5; pIC50 [10]: 8.01
